Structures can show the parent of a compound that is named as a salt. Where two headings read alike, the source gives them in different places.

Data set [1] is described as follows: Murine antitumor activity versus Pancreatic Ductal Adenocarcinoma #03. The note with it: mouse, in vivo, iv; administered intravenously, total dose; mice, Panc 03 study; read-out: MTD (maximum tolerated total dose). It is filed as in vivo. From the text:
(§1) Murine Antitumor Activaty Versus Pancreatic Ductal Adenocarcinoma #03.
(§2) This is tumor growth inhibition, where T is the medium tumor burden in the treatment group times 100 at evaluation and C is the medium tumor burden in the control group at evaluation.
(§3) This is the maximum tolerated total dose administered intravenously in mg/kg.
(§4) This means the long term cures, the number of mice in the treatment group with no palpable tumor evidents after a minimum of 86 days/total number in treatment group. […]

Data set [2] relates to Pancreatic Ductal Adenocarcinoma #03 (Panc 03). The data set is described as above. It is filed as in vivo. The following applies: versus Panc 03; for % T/C (tumor growth inhibition): intravenous, T/C <42% considered significant; for LTC (long term cures): mice with no palpable tumor after a minimum of 86 days/total number in treatment group.
From the text: as §1, §2, §3, §4

The test system of the next data set is calf thymus DNA. The data set is described as follows: DNA intercalation: ethidium bromide displacement assay. It is filed as binding. The following applies: displacement of 50% of calf thymus DNA bound ethidium bromide; average of two determinations. The text has this:
A known ethidium bromide displacement assay is used to determine intercalation potency.

Another data set concerns the target HeLa cell topo II (Homo sapiens, UniProt P11388). The data set is described as follows: Topoisomerase II inhibition: promotion of covalent complex formation between pBR322 DNA and topo II (SDS/K+ precipitation). The note with it: read-out: topo II inhib EC50. It is filed as biochemical.
Data set [3] relates to P388 mouse leukemia cells. The data set is described as follows: In vitro cytotoxicity: clonogenic survival in soft agar. The note with it: read-out: in vitro cytox IC50. It is filed as cell-based. The protocol: In Vitro Cytotoxicity This is measured by quantifying clonogenic survival in soft agar following a 1 hour transient exposure of P388 mouse leukemia cells to drug.

The conditions of data set [4]: tested as an antitumor agent (literature); cited from earlier work.
[5] abbreviates: footnote j: first dose administered 4 days after tumor implantation.
The mark [6] stands for this setting: DNA precipitated equivalent to 50% of the maximum precipitated by m-AMSA.
[7] abbreviates: P388, 1 hour transient exposure, 50% reduction of clonogenic survival in soft agar.
[8] abbreviates: footnote k: bell-shaped dose response curve noted when determining the EC50, relative to 50% of m-AMSA maximum.

Chain of HeLa cell topo II (P11388 whole entry): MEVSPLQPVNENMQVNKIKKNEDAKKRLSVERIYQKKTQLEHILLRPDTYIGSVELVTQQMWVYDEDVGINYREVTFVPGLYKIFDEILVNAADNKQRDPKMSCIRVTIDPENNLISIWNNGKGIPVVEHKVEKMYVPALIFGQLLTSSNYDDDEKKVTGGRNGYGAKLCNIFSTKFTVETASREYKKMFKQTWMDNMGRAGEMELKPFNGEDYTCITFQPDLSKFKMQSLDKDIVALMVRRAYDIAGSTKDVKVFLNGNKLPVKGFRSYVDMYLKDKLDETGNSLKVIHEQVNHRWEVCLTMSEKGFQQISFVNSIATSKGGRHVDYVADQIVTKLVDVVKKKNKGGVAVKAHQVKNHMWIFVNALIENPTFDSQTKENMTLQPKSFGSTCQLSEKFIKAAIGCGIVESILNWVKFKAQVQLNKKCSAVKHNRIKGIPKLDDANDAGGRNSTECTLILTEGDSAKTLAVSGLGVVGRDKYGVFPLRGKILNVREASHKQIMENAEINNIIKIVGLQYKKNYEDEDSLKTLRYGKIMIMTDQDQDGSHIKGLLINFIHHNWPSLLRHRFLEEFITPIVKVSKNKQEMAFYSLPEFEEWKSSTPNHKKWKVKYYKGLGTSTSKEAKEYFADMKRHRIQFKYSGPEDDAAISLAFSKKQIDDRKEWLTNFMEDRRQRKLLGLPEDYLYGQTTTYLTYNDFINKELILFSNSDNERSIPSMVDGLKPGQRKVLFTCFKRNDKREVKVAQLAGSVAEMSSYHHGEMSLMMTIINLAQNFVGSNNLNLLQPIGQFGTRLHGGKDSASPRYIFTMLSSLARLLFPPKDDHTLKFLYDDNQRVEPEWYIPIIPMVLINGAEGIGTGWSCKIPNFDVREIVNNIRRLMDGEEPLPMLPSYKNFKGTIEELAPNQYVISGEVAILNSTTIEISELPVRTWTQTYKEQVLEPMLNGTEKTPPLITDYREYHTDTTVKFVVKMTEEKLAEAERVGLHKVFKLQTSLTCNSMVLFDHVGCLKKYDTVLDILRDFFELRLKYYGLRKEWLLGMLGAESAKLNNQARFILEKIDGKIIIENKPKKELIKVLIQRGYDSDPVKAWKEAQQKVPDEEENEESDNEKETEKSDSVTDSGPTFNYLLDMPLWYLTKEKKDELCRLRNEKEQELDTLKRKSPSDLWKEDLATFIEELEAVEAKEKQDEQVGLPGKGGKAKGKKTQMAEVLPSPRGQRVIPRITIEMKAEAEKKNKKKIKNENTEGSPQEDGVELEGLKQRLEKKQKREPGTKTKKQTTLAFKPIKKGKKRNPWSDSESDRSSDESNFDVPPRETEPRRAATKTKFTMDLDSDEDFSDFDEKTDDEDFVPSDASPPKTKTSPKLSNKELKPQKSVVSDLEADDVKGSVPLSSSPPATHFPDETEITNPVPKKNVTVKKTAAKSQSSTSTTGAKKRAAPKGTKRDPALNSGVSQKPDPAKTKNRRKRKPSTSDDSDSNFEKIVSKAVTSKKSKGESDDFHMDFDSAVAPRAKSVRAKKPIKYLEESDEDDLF

As usually defined, the MTD is the highest dose tested that stayed within the study's limit of toxicity. In general, EC50 refers to the concentration that produces a half-maximal response. The term IC50 denotes the concentration that gives 50% inhibition. On to `CCN(CC)CCn1nc2c3c(c(CNC(=O)OC)ccc31)Sc1ccc(OC)cc1-2` [Ex 14], for which, in data set [1], the MTD amounted to 170 mg/kg. Further, in data set [2] (setting [5]), the “% T/C (tumor growth inhibition)” value was 0%. In data set [2], the “LTC (long term cures)” value is given as 4/4. Besides, the concentration giving a half-maximal response (EC50) was 790 nM in the data set on calf thymus DNA and above 220000 nM on HeLa cell topo II (setting [6]). In addition, in data set [3] (setting [7]), the IC50 was determined as 45000 nM.

As for `CCN(CC)CCn1nc2c3c(c(CN)ccc31)Sc1ccc(OC)cc1-2` [Ex 9], in data set [1], the maximal tolerated dose (MTD) was 240 mg/kg. Also, in data set [2] (setting [5]), the “% T/C (tumor growth inhibition)” value was found to be 0%. Also, the “LTC (long term cures)” value in data set [2] is 3/4. The EC50 with calf thymus DNA was 130 nM; at HeLa cell topo II (setting [6]), above 260000 nM. For the same compound, in data set [3] (setting [7]), the IC50 was 13000 nM.

In the case of `CCN(CC)CCn1nc2c3c(c(CNC=O)ccc31)Sc1ccc(OC)cc1-2` [Ex 6], in data set [1], the maximum tolerated dose (MTD) was found to be 231 mg/kg. Also, in data set [2], the “LTC (long term cures)” value is 3/5 and the “% T/C (tumor growth inhibition)” value was 0%. This compound gave a concentration giving a half-maximal response (EC50) in the data set with calf thymus DNA of 1900 nM. The EC50 at HeLa cell topo II (setting [6]) was above 240000 nM. Besides, in data set [3] (setting [7]), the IC50 worked out at 55000 nM.

As to `CCN(CC)CCn1nc2c3c(c(CNS(C)(=O)=O)ccc31)Sc1ccc(OC)cc1-2` [Ex 12], the MTD in data set [1] turned out to be 208 mg/kg. For the same compound, in data set [2], the “LTC (long term cures)” value was 3/5 and the “% T/C (tumor growth inhibition)” value stood at 0%. A half-maximal response in the data set on calf thymus DNA (EC50) required 1600 nM. For the same compound, on HeLa cell topo II (setting [6]), the EC50 is above 210000 nM. For the same compound, the IC50 in data set [3] (setting [7]) is 30000 nM.

On to `Cc1ccc2[nH]nc3c2c1Sc1ccccc1-3` [5-methyl-2H-[1]benzothiopyrano[4,3,2-cd]indazole], for which, in data set [4], the antitumor activity entry is “inactive”.

For `CCN(CC)CCn1nc2c3c(c(CNS(C)(=O)=O)ccc31)Sc1ccccc1-2` [Ex 11, N-[[2-[2-(Diethylamino)ethyl]-2H-[1]-benzothiopyrano[4,3,2-cd]indazol-5-yl]methyl]methanesulfonamide], the MTD in data set [1] amounted to 72 mg/kg. In data set [2], the “LTC (long term cures)” value is 0/5. Further, the “% T/C (tumor growth inhibition)” value in data set [2] turned out to be 0%. Besides, the EC50 is 1800 nM in the data set on calf thymus DNA and above 230000 nM on HeLa cell topo II (setting [6]). In data set [3] (setting [7]), the IC50 is 500 nM.

As to `CCN(CC)CCn1nc2c3c(c(CNC)ccc31)Sc1ccccc1-2` [Ex 10, N-methyl-2-[(2-(Diethylamino)ethyl]-2H-[1]-benzothiopyrano[4,3,2-cd]indazole-5-methanaminedihydrochloride hydrate], the MTD in data set [1] was 326 mg/kg. In data set [2], the “LTC (long term cures)” value is 1/5 and the “% T/C (tumor growth inhibition)” value amounted to 0%. In the data set with calf thymus DNA, this compound yielded an EC50 of 180 nM. In addition, the EC50 on HeLa cell topo II (setting [6]) is above 220000 nM. Also, the concentration for half-maximal inhibition (IC50) in data set [3] (setting [7]) is 16000 nM.

Take `CCN(CC)CCn1nc2c3c(c(CNC(=O)OC)ccc31)Sc1ccc(O)cc1-2` [Ex 16]: the MTD in data set [1] was found to be 18 mg/kg. Also, the “% T/C (tumor growth inhibition)” value in data set [2] (setting [5]) worked out at 13%. Moreover, the “LTC (long term cures)” value in data set [2] is given as 0/5. The half-maximal effective concentration (EC50) in the data set with calf thymus DNA was 1500 nM; at HeLa cell topo II (setting [8]) it was 330 nM. Also, the 50% inhibitory concentration (IC50) in data set [3] (setting [7]) was 11 nM.

Turning to `COc1cc(NS(C)(=O)=O)ccc1Nc1c2ccccc2nc2ccccc12` [mAMSA, reference compound], the maximum tolerated dose (MTD) in data set [1] came out at 48 mg/kg. Moreover, in data set [2], the “LTC (long term cures)” value is 0/5 and the “% T/C (tumor growth inhibition)” value came to 0%. In addition, the EC50 with calf thymus DNA is 11000 nM. For the same compound, the IC50 in data set [3] (P388, 1 h) came out at 151 nM.

For `CCN(CC)CCn1nc2c3c(c(CNS(C)(=O)=O)ccc31)Sc1ccc(O)cc1-2` [Ex 15], the maximal tolerated dose (MTD) in data set [1] was determined as 31 mg/kg. In data set [2] (setting [5]), the “% T/C (tumor growth inhibition)” value is 0%. For the same compound, the “LTC (long term cures)” value in data set [2] was 0/5. Further, the EC50 amounted to 2400 nM in the data set on calf thymus DNA and 550 nM at HeLa cell topo II (setting [8]). Moreover, the 50% inhibitory concentration (IC50) in data set [3] (setting [7]) turned out to be 4.4 nM.

As for `CCN(CC)CCn1nc2c3c(c(CNC(=O)OC)ccc31)Sc1ccccc1-2` [Ex 13, Methyl N-[[2-[(2-diethylamino)ethyl]-2H-[1]-benzothiopyrano(4,3,2-cd)indazol-5-yl]methyl) carbamate], the MTD in data set [1] came to 78 mg/kg. For the same compound, in data set [2], the “LTC (long term cures)” value is on record as 3/5 and the “% T/C (tumor growth inhibition)” value worked out at 0%. The response in the data set with calf thymus DNA was half-maximal at 2600 nM (EC50). Besides, the EC50 on HeLa cell topo II (setting [6]) is above 240000 nM. Further, the IC50 in data set [3] (setting [7]) came out at 500 nM.

As for `CCN(CC)CCn1nc2c3c(c(CN)ccc31)Sc1ccccc1-2` [Ex 8], the MTD in data set [1] came to 72 mg/kg. The “% T/C (tumor growth inhibition)” value in data set [2] (setting [5]) worked out at 25%. Further, the “LTC (long term cures)” value in data set [2] is 0/5. In addition, the EC50 in the data set with calf thymus DNA is 120 nM; at HeLa cell topo II (setting [6]) it was above 250000 nM. In data set [3] (setting [7]), the IC50 was 5800 nM.

Consider `CCN(CC)CCNc1ccc(CN(C)S(C)(=O)=O)c2sc3ccccc3c(=O)c12` [WIN33377, reference compound], for which the maximum tolerated dose (MTD) in data set [1] was 124 mg/kg. Besides, in data set [2], the “LTC (long term cures)” value is 3/5 and the “% T/C (tumor growth inhibition)” value is reported as 0%. Besides, the EC50 in the data set with calf thymus DNA is 18000 nM. For the same compound, the EC50 on HeLa cell topo II (setting [8]) came out at 3000 nM. In addition, the half-maximal inhibitory concentration (IC50) in data set [3] (setting [7]) is 301 nM.

With `CCN(CC)CCn1nc2c3c(c(CNC=O)ccc31)Sc1ccccc1-2` [Ex 5], the MTD in data set [1] came to 81 mg/kg. Further, in data set [2], the “LTC (long term cures)” value is reported as 0/5 and the “% T/C (tumor growth inhibition)” value was determined as 0%. The compound further registered an EC50 in the data set on calf thymus DNA of 1500 nM. For the same compound, the EC50 on HeLa cell topo II (setting [6]) is above 260000 nM. Also, in data set [3] (setting [7]), the IC50 stood at 330 nM.

Source of the values: US5532263A, “Benzothiopyranoindazole antitumor agents” (priority 1995, dated 1996).
